Data set [1] relates to RKO. As to the kind of experiment: Antiproliferative activity against human RKO cells assessed as reduction in cell growth measured for 48 hrs by MTT assay. The following applies: pooled result: one value given for 6 cell lines, strains, targets or settings. Type of data set: functional, cell-based. In general terms: Formazan colour is commonly taken as a measure of viable cells.

The test system of data set [2] is MCF7. Description: Antiproliferative activity against human MCF7 cells assessed as reduction in cell viability incubated for 72 hrs by MTT assay. The format is functional, cell-based. The settings on record: MCF7, 72 h.
For data set [3], the system named is MDA-MB-231. As to the kind of experiment: Antiproliferative activity against human MDA-MB-231 cells assessed as reduction in cell viability incubated for 72 hrs by MTT assay. The format is functional, cell-based. The settings on record: MDA-MB-231, 72 h.
A short description of data set [4]: Antiproliferative activity against human MCF-10A cells assessed as reduction in cell viability incubated for 72 hrs by MTT assay. Type of data set: toxicity, cell-based.
Data set [5] relates to NCI/ADR-RES. As to the kind of experiment: Antiproliferative activity against human MCF7ADR cells assessed as reduction in cell viability incubated for 72 hrs by MTT assay. Type of data set: functional, cell-based.
The subject of data set [6] is SGC-7901. Description: Antiproliferative activity against human SGC-7901 cells assessed as reduction in cell viability by MTT assay. Type of data set: functional, cell-based.
The test system of data set [7] is KB. Description: Antiproliferative activity against human KB cells assessed as reduction in cell viability by MTT assay. The format is functional, cell-based.
In data set [8] the test system is HT-1080. Description: Antiproliferative activity against human HT-1080 cells assessed as reduction in cell viability by MTT assay. Type of data set: functional, cell-based.
The subject of data set [9] is A549. Description: Antiproliferative activity against human A549 cells assessed as reduction in cell viability incubated for 48 hrs by MTT assay. Type of data set: functional, cell-based. The following applies: A549, 48 h.
For data set [10], the system named is MDA-MB-231. As to the kind of experiment: Antiproliferative activity against human MDA-MB-231 cells assessed as reduction in cell viability incubated for 48 hrs by MTT assay. Type of data set: functional, cell-based. The settings on record: MDA-MB-231, 48 h.
Data set [11] concerns HepG2. As to the kind of experiment: Antiproliferative activity against human HepG2 cells assessed as reduction in cell viability incubated for 48 hrs by MTT assay. Type of data set: functional, cell-based. The following applies: HepG2, 48 h.
Data set [12] relates to RKO. Description: Antiproliferative activity against human RKO cells assessed as reduction in cell viability incubated for 48 hrs by MTT assay. The format is functional, cell-based.
The subject of data set [13] is HCT-116. As to the kind of experiment: Antiproliferative activity against human HCT-116 cells assessed as reduction in cell viability incubated for 48 hrs by MTT assay. The format is functional, cell-based. The following applies: HCT-116, 48 h.
The test system of data set [14] is HeLa. Description: Antiproliferative activity against human HeLa cells assessed as reduction in cell viability incubated for 48 hrs by MTT assay. Type of data set: functional, cell-based.

SMILES strings stand for the structures.

Broadly, the IC50 is the concentration that inhibits the measured activity by half. Turning to `Cc1cc([Se]C#N)ccc1N(C)c1nc(Cl)nc2ccccc12`, in [1], the 50% inhibitory concentration (IC50) stood at 37.9 nM.

For the compound `COc1ccc([Se](=O)c2cc(OC)c(OC)c(OC)c2)cc1O` (stereo not given), the values for the IC50 in data set [2], in data set [3] and in data set [5] were 25 nM, 6.3 nM and 26.3 nM, respectively. The IC50 at 72 h in data set [4] turned out to be 131 nM.

With `CN(c1ccc([Se]C#N)cc1)c1nc(Cl)nc2ccccc12`, the half-maximal inhibitory concentration (IC50) in data set [1] was 3.39 nM.

As to `COc1ccc(/C=C\c2cc(OC)c(OC)c(OC)c2)cc1O` [COMBRETASTATIN A4], the half-inhibitory concentration (IC50) in [6] was found to be 11 nM; in data set [7], 4 nM; in data set [8] it was 11 nM.

As to `COc1cc(C(=O)/C=C/c2c[nH]c3ccccc23)cc([Se]C)c1OC`, the IC50 in [9], in data set [10], in data set [11], in data set [12], in data set [13] and in data set [14] was 29 nM in each case.

For the compound `C[Se]c1ccc(N(C)c2nc(Cl)nc3ccccc23)cc1`, the half-inhibitory concentration (IC50) in [1] came to 2.77 nM.

As for `COc1ccc([Se]c2c(C)[nH]c3c(OC)c(OC)c(OC)cc23)cc1O`, the values for the half-maximal inhibitory concentration (IC50) in data set [6], in data set [7] and in data set [8] were 54 nM, 25 nM and 14 nM, respectively.

In the case of `Cc1cc(N(C)c2nc(Cl)nc3ccccc23)ccc1[Se]C#N`, the IC50 in data set [1] came out at 6.01 nM.

Regarding `C[Se]c1ccc(N(C)c2nc(=O)[nH]c3ccccc23)cc1`, the half-inhibitory concentration (IC50) in data set [1] is 17.4 nM.

For `COc1ccc([Se]c2c[nH]c3c(OC)c(OC)c(OC)cc23)cc1O`, the values for the 50% inhibitory concentration (IC50) in data set [6], in data set [7] and in data set [8] were 220 nM, 640 nM and 1000 nM, respectively.

Take `COc1nc(N(C)c2ccc([Se]C)cc2)c2ccccc2n1`: the IC50 in data set [1] turned out to be 4.78 nM.

For the origin of these results see ChEMBL document CHEMBL6177942, “Recent advances of selenized tubulin inhibitors in cancer therapy” (Bioorg Med Chem Lett, 2025).
